Results taken from article PMC7925390 (Frontiers in Microbiology, 2021).
Like-named read-outs stand apart in the source and are kept apart here.

Tests used:
TsPYK [1] = biological target: T1, TsPYK (Thermoanaerobacterium saccharolyticum, UniProt I3VV25); test: Kapp–PEP versus effector concentration, lactate dehydrogenase coupled assay; type: biochemical; details: 10 mM ADP, 15 mM MgCl2, 30 °C
T1 construct: gene Tsac_1363; full length with extra-C domain; N-terminal 6XHis tag kept (6XHis-MBP-SUMO tag in later expression); expressed in E. coli FF50 / QTF60 (pykA pykF deleted); homotetramer
T1 sequence (I3VV25 1-583): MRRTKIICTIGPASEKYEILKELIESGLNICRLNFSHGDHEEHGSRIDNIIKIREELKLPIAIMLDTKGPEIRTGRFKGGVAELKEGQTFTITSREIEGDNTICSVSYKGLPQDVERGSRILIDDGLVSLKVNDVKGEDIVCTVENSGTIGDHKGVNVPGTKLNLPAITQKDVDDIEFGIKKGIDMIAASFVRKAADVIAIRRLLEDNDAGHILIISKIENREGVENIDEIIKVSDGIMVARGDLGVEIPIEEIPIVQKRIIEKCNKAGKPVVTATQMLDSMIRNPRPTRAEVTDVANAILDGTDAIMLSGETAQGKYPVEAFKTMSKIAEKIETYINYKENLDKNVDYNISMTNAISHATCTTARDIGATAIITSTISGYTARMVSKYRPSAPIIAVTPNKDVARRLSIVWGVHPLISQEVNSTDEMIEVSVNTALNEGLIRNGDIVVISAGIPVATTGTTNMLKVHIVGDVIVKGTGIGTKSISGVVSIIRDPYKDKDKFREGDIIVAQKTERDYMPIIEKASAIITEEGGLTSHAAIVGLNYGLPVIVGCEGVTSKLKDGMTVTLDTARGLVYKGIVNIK

TsPYK [2] = biological target: T1, TsPYK; test: Kapp–PEP versus effector concentration, lactate dehydrogenase coupled assay, linkage fit; type: biochemical; details: Kix in absence of PEP, 10 mM ADP, 15 mM MgCl2, 30 °C
Source text: Kapp–PEP versus effector concentration, lactate dehydrogenase coupled assay, linkage fit on TsPYK

[3] = biological target: T2, TsPYK extra-C domain truncated (Thermoanaerobacterium saccharolyticum, UniProt I3VV25); test: lactate dehydrogenase coupled NADH assay, A340, Hill fit; type: biochemical; details: 10 mM ADP, 15 mM MgCl2, 30 °C; no effector
T2 construct: gene Tsac_1363; N-terminal 6XHis-MBP-SUMO tag kept; expressed in E. coli QTF60

C. bescii PYK [4] = biological target: T3, C. bescii PYK (Caldicellulosiruptor bescii, UniProt A0ABY1S964); test: as above; type: biochemical; details: 10 mM ADP, 15 mM MgCl2, 30 °C; no effector
T3 construct: gene SAMN05216240_1829; full length with extra-C domain; N-terminal 6XHis-MBP-SUMO tag kept; expressed in E. coli QTF60
T3 sequence (A0ABY1S964 entry or part of it): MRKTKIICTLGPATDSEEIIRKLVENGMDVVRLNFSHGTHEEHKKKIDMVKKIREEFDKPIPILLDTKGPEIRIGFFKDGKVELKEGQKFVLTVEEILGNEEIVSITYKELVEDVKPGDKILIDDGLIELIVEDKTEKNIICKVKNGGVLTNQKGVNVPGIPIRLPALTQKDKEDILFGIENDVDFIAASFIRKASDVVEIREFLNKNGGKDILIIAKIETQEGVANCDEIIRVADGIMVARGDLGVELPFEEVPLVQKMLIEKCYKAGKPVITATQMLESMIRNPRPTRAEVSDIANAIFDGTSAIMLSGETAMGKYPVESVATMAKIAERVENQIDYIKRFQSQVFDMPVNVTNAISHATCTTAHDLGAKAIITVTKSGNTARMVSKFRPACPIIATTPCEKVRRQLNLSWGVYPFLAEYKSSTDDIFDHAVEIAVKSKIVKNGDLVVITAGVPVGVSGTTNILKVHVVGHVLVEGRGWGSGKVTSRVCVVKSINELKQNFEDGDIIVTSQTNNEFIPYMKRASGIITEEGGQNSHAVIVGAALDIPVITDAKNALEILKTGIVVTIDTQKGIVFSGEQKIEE

E. coli Type A [5] = biological target: T4, E. coli Type A (Escherichia coli, UniProt P21599); test: as above; type: biochemical; details: 10 mM ADP, 15 mM MgCl2, 30 °C; no effector
T4 construct: gene pykA; full length; no extra-C domain; N-terminal 6XHis-MBP-SUMO tag kept; expressed in E. coli QTF60
T4 sequence (P21599 whole entry): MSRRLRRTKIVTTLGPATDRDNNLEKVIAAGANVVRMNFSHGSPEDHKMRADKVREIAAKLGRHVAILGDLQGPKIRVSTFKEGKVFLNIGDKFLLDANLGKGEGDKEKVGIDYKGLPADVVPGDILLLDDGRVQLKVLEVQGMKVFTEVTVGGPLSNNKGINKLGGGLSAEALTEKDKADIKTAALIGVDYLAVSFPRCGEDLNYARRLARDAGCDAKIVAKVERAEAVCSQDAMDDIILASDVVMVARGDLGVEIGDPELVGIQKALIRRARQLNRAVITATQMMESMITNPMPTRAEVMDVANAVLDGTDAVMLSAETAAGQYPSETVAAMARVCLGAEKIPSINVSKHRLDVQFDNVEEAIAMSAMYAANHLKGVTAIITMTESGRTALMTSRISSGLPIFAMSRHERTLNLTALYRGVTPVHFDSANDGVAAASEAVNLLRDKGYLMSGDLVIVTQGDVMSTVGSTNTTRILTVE

E. coli Type F = biological target: T5, E. coli Type F (Escherichia coli, UniProt P0AD61); test: as above; type: biochemical; details: 10 mM ADP, 15 mM MgCl2, 30 °C; no effector
T5 construct: gene pykF; full length; no extra-C domain; N-terminal 6XHis-MBP-SUMO tag kept; expressed in E. coli QTF60
T5 sequence (P0AD61 whole entry): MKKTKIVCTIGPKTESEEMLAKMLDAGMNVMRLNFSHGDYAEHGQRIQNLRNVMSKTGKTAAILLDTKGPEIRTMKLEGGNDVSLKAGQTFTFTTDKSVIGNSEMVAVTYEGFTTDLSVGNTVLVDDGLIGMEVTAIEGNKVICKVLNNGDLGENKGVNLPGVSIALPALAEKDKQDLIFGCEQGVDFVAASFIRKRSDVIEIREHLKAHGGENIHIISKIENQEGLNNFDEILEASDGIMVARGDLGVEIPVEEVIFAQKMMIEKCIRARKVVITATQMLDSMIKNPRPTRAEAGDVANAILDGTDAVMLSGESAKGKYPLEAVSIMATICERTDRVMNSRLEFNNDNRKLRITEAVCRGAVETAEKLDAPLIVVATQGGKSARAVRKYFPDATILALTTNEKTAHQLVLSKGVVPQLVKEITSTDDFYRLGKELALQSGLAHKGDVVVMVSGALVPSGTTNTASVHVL

C. bescii PYK [6] = biological target: T3, C. bescii PYK; test: Kapp–PEP versus effector concentration, lactate dehydrogenase coupled assay; type: biochemical; details: allosteric activator; 10 mM ADP, 15 mM MgCl2, 30 °C
[7] = biological target: T2, TsPYK extra-C domain truncated; test: as above; type: biochemical; details: allosteric activator; 10 mM ADP, 15 mM MgCl2, 30 °C
E. coli Type A [8] = biological target: T4, E. coli Type A; test: as above; type: biochemical; details: allosteric activator; 10 mM ADP, 15 mM MgCl2, 30 °C
[9] = substrate: C=C(OP(=O)(O)O)C(=O)O; test: lactate dehydrogenase coupled NADH assay, A340, Hill fit; type: biochemical, Thermoanaerobacterium saccharolyticum; details: 10 mM ADP, 15 mM MgCl2, 195 mM K+, 80 mM Na+, 50 mM HEPES, 30 °C, no effector, ± sign lost in table text
Source text: lactate dehydrogenase coupled NADH assay, A340, Hill fit on TsPYK

With O=C[C@H](O)COP(=O)(O)O [glyceraldehyde 3-phosphate] the Kapp-PEP shift (TsPYK [1]; allosteric inhibitor) was “glyceraldehyde 3-phosphate, fructose-6-phosphate, IMP or GMP all caused reduced affinity for PEP”.

Nc1nc2c(ncn2[C@@H]2O[C@H](COP(=O)(O)O)[C@@H](O)[C@H]2O)c(=O)[nH]1 [GMP] showed a Kd (TsPYK [2]; allosteric inhibitor, ± sign lost in table text (printed 11), read-out: Kix-GMP) of 1000 ± 1000 µM.

For C=C(OP(=O)(O)O)C(=O)O [PEP], the Kapp-PEP [3] was “A comparison of responses to IMP and AMP for the full length TsPYK”, the Kapp-PEP (C. bescii PYK [4]) was “The response of three bacterial PYK isozymes to AMP and IMP” and the Kapp-PEP (E. coli Type A [5]) was “The response of three bacterial PYK isozymes to AMP and IMP”. The Kapp-PEP (E. coli Type F) was “The response of three bacterial PYK isozymes to AMP and IMP”.

With O=P(O)(O)OC[C@H]1OC(O)(CO)[C@@H](O)[C@@H]1O (some centres unmarked) [fructose-6-phosphate] the Kapp-PEP shift (TsPYK [1]; allosteric inhibitor) was “glyceraldehyde 3-phosphate, fructose-6-phosphate, IMP or GMP all caused reduced affinity for PEP”.

Nc1ncnc2c1ncn2[C@@H]1O[C@H](COP(=O)(O)O)[C@@H](O)[C@H]1O [AMP] was tested, and the Kapp-PEP shift (C. bescii PYK [6]) was “the isozyme from C. bescii were inhibited by IMP and activated by AMP”, the Kapp-PEP shift [7] was “Activation by AMP was not influenced by the removal of the extra-C domain” and the Kd (TsPYK [2]; allosteric activator, ± sign lost in table text, read-out: Kix-AMP) was 90 ± 60 µM. The Kapp-PEP shift (E. coli Type A [8]) was “the E. coli type A isozyme was activated by both AMP and IMP”.

Nc1ncnc2c1ncn2[C@H]1C[C@H](O)[C@@H](COP(=O)(O)O)O1 [2-deoxyadenonsine-5′MP] was tested, and the Kapp-PEP shift (TsPYK [1]; allosteric activator) was “generated a response very similar to AMP (slightly reduced binding)”.

For O=P(O)(O)OC[C@H]1OC(O)[C@H](O)[C@@H]1O (some centres unmarked) [R5P], the Kd (TsPYK [2]; allosteric activator, ± sign lost in table text (printed 1110), read-out: Kix-R5P) was 11000 ± 10000 µM.

B1: TsPYK (Thermoanaerobacterium saccharolyticum JW/SL-YS485) (protein)
chain: T1 sequence (I3VV25 1-583)
notes: full length with extra-C domain; N-terminal 6XHis tag kept (6XHis-MBP-SUMO tag in later expression); expressed in E. coli FF50 / QTF60 (pykA pykF deleted); homotetramer
B1 showed a K0.5 [9] of 0.63 ± 0.03 mM.
